Calls of active or inactive are those of the source. No cut-off for these calls is given here.
Biological target: T1, DNA polymerase alpha catalytic subunit (Homo sapiens) (UniProt P09884)
T1 sequence (whole entry): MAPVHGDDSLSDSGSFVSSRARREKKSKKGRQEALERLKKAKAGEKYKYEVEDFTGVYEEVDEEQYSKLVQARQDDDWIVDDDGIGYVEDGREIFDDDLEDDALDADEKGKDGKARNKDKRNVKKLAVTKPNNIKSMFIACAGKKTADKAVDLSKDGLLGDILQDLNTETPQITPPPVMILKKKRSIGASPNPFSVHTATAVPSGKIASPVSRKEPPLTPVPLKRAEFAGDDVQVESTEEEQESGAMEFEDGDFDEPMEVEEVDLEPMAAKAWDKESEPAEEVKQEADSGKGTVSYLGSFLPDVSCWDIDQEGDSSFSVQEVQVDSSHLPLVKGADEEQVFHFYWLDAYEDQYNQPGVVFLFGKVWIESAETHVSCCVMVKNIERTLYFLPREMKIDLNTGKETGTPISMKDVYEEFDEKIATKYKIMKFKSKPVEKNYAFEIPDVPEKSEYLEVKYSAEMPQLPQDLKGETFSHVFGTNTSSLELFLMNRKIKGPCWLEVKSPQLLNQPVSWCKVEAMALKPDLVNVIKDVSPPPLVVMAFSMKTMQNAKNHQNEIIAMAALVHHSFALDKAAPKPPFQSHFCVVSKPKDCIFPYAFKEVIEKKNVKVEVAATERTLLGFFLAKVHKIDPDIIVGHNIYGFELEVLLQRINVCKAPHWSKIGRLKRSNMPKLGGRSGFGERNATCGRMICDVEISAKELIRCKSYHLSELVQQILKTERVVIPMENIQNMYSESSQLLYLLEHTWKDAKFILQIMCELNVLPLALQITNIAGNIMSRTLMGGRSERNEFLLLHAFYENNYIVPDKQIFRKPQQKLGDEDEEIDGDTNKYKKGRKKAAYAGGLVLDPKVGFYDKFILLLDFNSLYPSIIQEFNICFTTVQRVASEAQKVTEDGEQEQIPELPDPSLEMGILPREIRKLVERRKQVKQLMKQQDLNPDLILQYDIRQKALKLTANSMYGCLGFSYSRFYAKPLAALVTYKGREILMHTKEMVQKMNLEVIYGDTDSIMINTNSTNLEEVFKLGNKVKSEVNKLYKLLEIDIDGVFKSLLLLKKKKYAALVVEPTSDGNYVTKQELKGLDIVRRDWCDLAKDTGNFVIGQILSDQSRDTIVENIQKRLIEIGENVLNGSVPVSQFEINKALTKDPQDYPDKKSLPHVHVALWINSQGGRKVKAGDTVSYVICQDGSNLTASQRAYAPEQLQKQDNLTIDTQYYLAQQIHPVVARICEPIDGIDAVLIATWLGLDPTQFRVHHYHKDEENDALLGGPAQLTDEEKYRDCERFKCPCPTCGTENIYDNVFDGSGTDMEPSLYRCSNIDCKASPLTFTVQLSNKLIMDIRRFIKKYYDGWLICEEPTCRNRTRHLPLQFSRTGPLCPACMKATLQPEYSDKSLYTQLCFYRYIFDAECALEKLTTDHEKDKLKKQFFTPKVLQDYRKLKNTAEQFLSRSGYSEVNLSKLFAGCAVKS
Assay: Inhibition of human DNA polymerase alpha upto 45 uM

In the case of NS(=O)(=O)c1ccc(NC(=O)CSc2nnc(Br)n2-c2ccc(C3CC3)c3ccccc23)c(Cl)c1, the Activity is reported as “inactive”.

From ChEMBL document CHEMBL1142195, “A novel nonnucleoside analogue that inhibits human immunodeficiency virus type 1 isolates resistant to current nonnucleoside reverse transcriptase inhibitors” (Antimicrob Agents Chemother, 2007)
